Reference: patent publication US20240122179A1, “AUXINIC HERBICIDES AND METHODS OF USE THEREOF” (CORTEVA AGRISCIENCE LLC, priority 2021, published 2024)
Read-outs that look alike come from different tables or passages of the source.

Tests used:
[1] = test system: Kochia scoparia (KCHSC); assay: Postemergence herbicide evaluation, percent reduction in plant size vs untreated control, 21 days after treatment; format: in vivo; details: Bassia scoparia, post-emergence, 504 h, KCHSC, postemergence, read-out: Control/Injury; for pest or weed control at 140 g/ha: rate 140 g ae/ha; for pest or weed control at 280 g/ha: rate 280 g ae/ha
Summary of the method: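 Greenhouse-grown plants (25-28 °C, 16 h light) at the 2 to 8 leaf stage were track-sprayed postemergence at 140 or 280 g ae/ha in acetone/DMSO-based spray solution with crop oil and surfactant, at 187 L/ha, in 3-4 randomized replicates.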

[2] = test system: Glycine max; assay: whole plant or invertebrate; details: for plant injury at 140 g/ha / plant injury at 280 g/ha: Glycine max, post-emergence, 504 h, read-out: Control/Injury; for Control/Injury: in vivo
Description: Plants were grown in a soil media composed of 90% by volume Promix BX (Premier Tech Horticulture, Quakertown, PA) and 10% Profile Greens Grade (Profile Products LLC, Buffalo Grove, IL). Promix BX contains approximately 83% Sphagnum Peat Moss, 13% Perlite, 5% vermiculite, and proprietary amounts of limestone, starter fertilizer, and wetting agent. Profile Greens Grade is a sand-sized granule formed from calcining illite and montmorillonite clay. Several seeds of each species were planted in 10 cm square pots and top watered twice daily. Plant material was propagated in a warm greenhouse with temperature ranging from 25 to 28° C. and 50 to 60% relative humidity at the Corteva Global Headquarters (Indianapolis, Indiana, USA). Natural light was supplemented with 1000-watt metal halide overhead lamps with an average illumination of 500 μE m^−2 s^−1 photosynthetic active radiation for 16 consecutive hours each day. Plants were top-watered prior to herbicide application and sub-watered after herbicide application.
Appropriate amounts of test materials were weighed out into glass vials in their technical form to deliver either 140 or 280 g acid equivalent (ae)/ha. The samples were dissolved in 3 ml of Solvent 1. Solvent 1 is 97% acetone and 3% dimethyl sulfoxide and serves as a general-purpose solvent (GPS) for dissolving technical materials. […] The samples were then diluted to their final concentration using 17 ml of solvent 2 for a total of 20 ml of spray solution. Solvent 2 contains 41.58% GPS, 45.53% water, 11.88% isopropyl alcohol, 0.99% crop oil concentrate and 0.02% Trition X-155 surfactant. All percentages are listed on a volume basis. Dicamba diglycolamine was applied as a formulated herbicide, Clarity™ and diluted with solvent 2 to compare all materials in the same spray solution.
Herbicide applications were made to 3 to 4 replicates of each plant species at the 2 to 8 leaf stage, depending on the species. Treatments were applied with a research track-sprayer (Generation III Research Sprayer manufactured by DeVries Manufacturing in Hollandale, MN, USA) calibrated to deliver a spray volume of 187 L/ha. The track-sprayer was fitted with an 8003E nozzle from Spray Systems Company (North Avenue and Schmale Road, P.O. Box 7900, Wheaton, IL 60187), and used a spray pressure of 276 kPa pressure and a speed of 3.1 km/h. The nozzle height was 46 cm above the plant canopy. The experimental design used for the trials was a randomized complete block with 3 or 4 replications per treatment. After application, plants were placed on carts according to the randomization and returned to the greenhouse. Plants were sub-watered after treatment with Indianapolis city water or fertilized three times a week with a commercial fertilizer solution (Jack's Professional 15-5-15 4 Ca 2 Mg fertilizer (manufactured by JR PETERS INC., 6656 Grant Way, Allentown, PA 18106; www.jrpeters.com). Percent visual control assessments were made on a scale of 0 to 100% (where 0 was no control and 100 was complete plant death) at 7, 14, and 21 days after treatment.
In conformity with the methods outlined in Example 49, the effect of representative experimental compounds on the growth of Glycine max was determined at 2 different levels (respectively, 140 and 280 g acid equivalent (ae)/ha) of the experimental actives tested. Plants were treated with one of the compounds, a control plant was not treated. Twenty-one days after treatment, the plants were measured. The data is present as a percent reduction in plant size relative to the untreated control.

[3] = test system: Conyza canadensis (L.) (ERICA); assay: Postemergence herbicide evaluation, percent reduction in plant size vs untreated control, 21 days after treatment; format: in vivo, Conyza canadensis (L.) (Horseweed); details: Erigeron canadensis, post-emergence, 504 h, ERICA, postemergence, read-out: Control/Injury; for pest or weed control at 140 g/ha: rate 140 g ae/ha; for pest or weed control at 280 g/ha: rate 280 g ae/ha
Summary of the method: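 Horseshoe-weed (horseweed) seedlings at 2 to 8 leaf stage in greenhouse (25-28° C, 16 h light), sprayed postemergence at 140 or 280 g ae/ha in acetone/DMSO-based spray solution, 187 L/ha track-sprayer. Randomized complete block, 3-4 replicates; plant size measured 21 days after treatment as percent reduction vs untreated controls.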

[4] = test system: Ambrosia artemisiifolia (AMBEL); assay: as above; format: in vivo, Ambrosia artemisiifolia (common ragweed); details: post-emergence, 504 h, AMBEL, postemergence, read-out: Control/Injury; for pest or weed control at 140 g/ha: rate 140 g ae/ha; for pest or weed control at 280 g/ha: rate 280 g ae/ha
Summary of the method: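 Greenhouse-grown plants (25–28 °C, 16 h light) were sprayed postemergence at the 2–8 leaf stage with 140 or 280 g ae/ha in acetone/DMSO-based spray solution with crop oil and surfactant, at 187 L/ha by track sprayer. There were 3–4 replicates. Plant size was measured 21 days after treatment versus untreated plants.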

[5] = test system: Amaranthus palmeri (AMAPA); assay: as above; format: in vivo, Amaranthus palmeri (Palmer amaranth); details: post-emergence, 504 h, postemergence, read-out: Control/Injury; for pest or weed control at 140 g/ha: rate 140 g ae/ha; for pest or weed control at 280 g/ha: rate 280 g ae/ha
Summary of the method: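 Greenhouse-grown Palmer amaranth (25 to 28° C, 16 h light) sprayed postemergence at the 2 to 8 leaf stage with 140 or 280 g ae/ha in acetone/DMSO-based solution containing crop oil concentrate, 187 L/ha by track sprayer. Three to four replicates; plant size measured 21 days after treatment as percent reduction versus untreated control.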

[6] = test system: Amaranthus rudis (AMATA); assay: as above; format: in vivo, Amaranthus rudis (tall water hemp); details: Amaranthus tuberculatus, post-emergence, 504 h, AMATA, postemergence, read-out: Control/Injury; for pest or weed control at 140 g/ha: rate 140 g ae/ha; for pest or weed control at 280 g/ha: rate 280 g ae/ha
Summary of the method: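 Greenhouse-grown tall waterhemp (25-28° C, 16 h light) at the 2-8 leaf stage, treated by track sprayer at 187 L/ha with compound at 140 or 280 g ae/ha in acetone/DMSO-based spray solution with crop oil and surfactant. 3-4 replicates per treatment, randomized complete block; plant size reduction versus untreated control measured 21 days after treatment.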

[7] = percent reduction vs untreated control, 21 days after treatment
[8] = R-AMAPA, percent reduction vs untreated control, 21 days after treatment
[9] = percent reduction vs untreated, 21 days after treatment

| SMILES | pest or weed control at 140 g/ha [1] [%] | plant injury at 140 g/ha [2] [%] | plant injury at 280 g/ha [2] [%] | pest or weed control at 140 g/ha [3, 7] [%] | pest or weed control at 280 g/ha [3, 7] [%] | pest or weed control at 140 g/ha [4] [%] | pest or weed control at 280 g/ha [4] [%] | pest or weed control at 140 g/ha [5, 8] [%] | pest or weed control at 280 g/ha [5, 8] [%] | pest or weed control at 140 g/ha [6] [%] | pest or weed control at 280 g/ha [6] [%] | pest or weed control at 280 g/ha [1, 7] [%] | pest or weed control at 140 g/ha [1, 7] [%] | further results |
| --- | --- | --- | --- | --- | --- | --- | --- | --- | --- | --- | --- | --- | --- | --- |
| COc1c(Cl)ccc(Cl)c1C(=O)Nc1ccc(Cl)cc1 [Compound A-77] | 96 | 8 | 8 | 40 | 68 | 67 | 77 | 82 | 78 | 83 | 85 | – | – | pest or weed control at 280 g/ha [1]: 93% |
| COc1c(Cl)ccc(Cl)c1C(=O)NS(=O)(=O)c1ccc(C)cc1 [Compound A-78] | 50 | 25 | 67 | 5 | 15 | 45 | 57 | 23 | 32 | 12 | 20 | 85 | – | – |
| CC/C(C)=N/OC(=O)c1c(Cl)ccc(Cl)c1OC [Compound A-91] | – | 3 | 3 | 85 | 88 | 82 | 96 | 72 | 88 | 72 | 78 | 98 | 78 | – |
| COc1c(Cl)ccc(Cl)c1C(=O)O/N=C(\N)CCCCC/C(N)=N/OC(=O)c1c(Cl)ccc(Cl)c1OC [Compound A-146] | – | – | – | – | – | 83 | 86 | 43 | 60 | 70 | 63 | – | – | pest or weed control at 140 g/ha [1, 9]: 89%; pest or weed control at 280 g/ha [1, 9]: 96%; Control/Injury [2]: 0; pest or weed control at 140 g/ha [3, 9]: 73%; pest or weed control at 280 g/ha [3, 9]: 63% |
| COc1c(Cl)ccc(Cl)c1C(=O)OC(=O)c1c(Cl)ccc(Cl)c1OC [Compound A-90] | – | 8 | 3 | 30 | 25 | 57 | 67 | 32 | 40 | 22 | 18 | 32 | 17 | – |
| CCO/C(C)=N\OC(=O)c1c(Cl)ccc(Cl)c1OC [Compound A-93] | – | 10 | 5 | 63 | 80 | 68 | 90 | 68 | 80 | 60 | 75 | 93 | 77 | – |
| COc1c(Cl)ccc(Cl)c1C(=O)N1C(=O)C(=O)c2ccccc21 [Compound A-116] | – | – | – | – | – | 3 | 10 | – | – | 5 | 33 | – | – | pest or weed control at 140 g/ha [1, 9]: 0%; pest or weed control at 280 g/ha [1, 9]: 5%; Control/Injury [2]: 2; pest or weed control at 140 g/ha [3]: 3%; pest or weed control at 280 g/ha [3]: 5%; pest or weed control at 140 g/ha ([5]; AMAPA): 8%; pest or weed control at 280 g/ha ([5]; AMAPA): 30% |
| COc1c(Cl)ccc(Cl)c1C(=O)Oc1ccc(Cl)cc1 [Compound A-76] | 83 | 4 | 4 | 68 | 55 | 80 | 83 | 55 | 65 | 68 | 67 | – | – | pest or weed control at 280 g/ha [1]: 87% |
